# Article PMC12928700, “Structure of the human CTF18−RFC clamp loader bound to PCNA” (eLife, 2026)
# Columns and labels:
# [1] = target: T1, CTF18–RFC bound to PCNA (ADP site in RFC3) (Homo sapiens, UniProt P40938); assay: cryo-EM structure ([…] Å without Mg2+; […] Å with Mg2+); assay type: binding; conditions: ADP in AAA+ site of RFC3, not added, probably co-purified; seen with and without Mg2+
# T1 construct: same complex as P1; RFC3 with N-terminal His6 tag, insect cells; Ctf8/Dcc1 module not resolved in map; with Chromosome transmission fidelity protein 18 homolog; Replication factor C subunit 2; Replication factor C subunit 4; Replication factor C subunit 5; Sister chromatid cohesion protein DCC1; Chromosome transmission fidelity protein 8 homolog; Proliferating cell nuclear antigen
# [2] = target: T2, CTF18–RFC bound to PCNA (ATP sites in Ctf18, RFC2, RFC5) (Homo sapiens, UniProt P35250+P40937+Q8WVB6); assay: as above; assay type: binding; conditions: ATP in AAA+ sites of Ctf18 (adenine density poor), RFC2 and RFC5; RFC4 empty; 0.5 mM ATP, pH 7.5, without Mg2+ or with 5 mM Mg2+ (Mg2+ seen in RFC2 and RFC5); autoinhibited state, closed PCNA
# T2 construct: gene CHTF18; seven-subunit complex from insect cells (MultiBac, Sf9/Hi5); N-terminal twin-Strep-TEV tag (Ctf18, RFC2, RFC4) and N-terminal His6 tag (RFC3, RFC5, Dcc1, Ctf8), TEV treated; PCNA from E. coli; Ctf8/Dcc1 module not resolved in map; with Replication factor C subunit 4; Replication factor C subunit 3; Sister chromatid cohesion protein DCC1; Chromosome transmission fidelity protein 8 homolog; Proliferating cell nuclear antigen
Compound,cryo-EM structure (2.9 Å without Mg2+; 3.2 Å with Mg2+) [1],cryo-EM structure (2.9 Å without Mg2+; 3.2 Å with Mg2+) [2]
Nc1ncnc2c1ncn2[C@@H]1O[C@H](COP(=O)(O)OP(=O)(O)O)[C@@H](O)[C@H]1O [ADP],while ADP appears to engage RFC3,
Nc1ncnc2c1ncn2[C@@H]1O[C@H](COP(=O)(O)OP(=O)(O)OP(=O)(O)O)[C@@H](O)[C@H]1O [ATP],,"ATP is bound to subunits Ctf18, RFC2, and RFC5, while ADP appears to engage RFC3"
